Target: T1, IGF-1R (Homo sapiens, UniProt P08069)
T1 construct: expressed in transfected cells; host or cells: Hek293 (Hek293-IGF1R)
Test: Cellular IGF-1R assay: capture ELISA (MSD) of receptor phosphorylation in Hek293 cells
Type: cell-based
Conditions: Hek293-IGF1R cells, 1 h pre-incubation, 10 min IGF stimulation, pIGF1R capture ELISA
Experimental: (§1) In this assay the activity of the compounds of the invention against Insulin-like growth factor I (IGF-I) induced autophosphorylation of the IGF-IR was determined. The assay was conducted as follows: Compound-mediated inhibition of IGF1R and INSR phosphorylation in Hek293 cells transduced with the corresponding receptors was assessed in a capture ELISA format using the MSD (Meso Scale Discovery) platform. Briefly, 30,000 cells washed and diluted in starvation medium (DMEM high glucose supplemented with 0.1% BSA) were seeded in 90 μL per well into 96-well plates pre-coated with poly-D-lysine (0.1 mg/mL in PBS/O). After 24 h incubation at 37° C. and 5% CO2, dose-response effects were determined with 3-fold serial compound dilutions, starting at 10 μM. The final vehicle concentration is 0.1% DMSO in all wells. Following pre-incubation with compounds for 1 h, receptor phosphorylation was triggered by a 10 min exposure to 1.0 ng/μL IGF for Hek293-IGF1R cells, and 5.0 ng/μL insulin for Hek293-InsR cells. Cell lysis was achieved by addition of 80 μL MSD lysis buffer per aspirated well, incubation on ice for 20 min, and a freeze-thaw cycle. Target phosphorylation was then assessed by transferring volumes corresponding to approx. 6 μg Hek293-IGF1R or 0.6 μg Hek293-InsR lysates to MSD assay plates pre-coated with total-IGF1R or total-InsR Abs, respectively. […] Immune complexes were detected by a SULFO-Tag™-coupled anti-rabbit IgG antibody in the presence of 150 μL MSD read-buffer. Light emission at 620 nm triggered by application of electric current was recorded on a MSD Sectorlmager 6000. Acquired raw data (mean Ru-ECL units) were processed in an Excel analysis template. The plate blank (MSD lysis buffer) was subtracted from all data points. The effect of a particular test compound concentration on receptor phosphorylation was expressed relative to the window defined by ligand-stimulated vs unstimulated control cells (set as 100%). IC50 values [nM] were determined using 4-parametric curve-fitting (XLfit software, V4.3.2).
as §1, with “Compound-mediated” for “In this assay the activity of the compounds of the invention against Insulin-like growth factor I (IGF-I) induced autophosphorylation of the IGF-IR was determined. The assay was conducted as follows: Compound-mediated”, “cells trans-duced” for “cells transduced”, “receptors were” for “receptors was”, “concentration was” for “concentration is”, “for Hek293-IGF1 R” for “for Hek293-IGF1R”, “with total-IGF1 R” for “with total-IGF1R”

T1 sequence (P08069 31-1367): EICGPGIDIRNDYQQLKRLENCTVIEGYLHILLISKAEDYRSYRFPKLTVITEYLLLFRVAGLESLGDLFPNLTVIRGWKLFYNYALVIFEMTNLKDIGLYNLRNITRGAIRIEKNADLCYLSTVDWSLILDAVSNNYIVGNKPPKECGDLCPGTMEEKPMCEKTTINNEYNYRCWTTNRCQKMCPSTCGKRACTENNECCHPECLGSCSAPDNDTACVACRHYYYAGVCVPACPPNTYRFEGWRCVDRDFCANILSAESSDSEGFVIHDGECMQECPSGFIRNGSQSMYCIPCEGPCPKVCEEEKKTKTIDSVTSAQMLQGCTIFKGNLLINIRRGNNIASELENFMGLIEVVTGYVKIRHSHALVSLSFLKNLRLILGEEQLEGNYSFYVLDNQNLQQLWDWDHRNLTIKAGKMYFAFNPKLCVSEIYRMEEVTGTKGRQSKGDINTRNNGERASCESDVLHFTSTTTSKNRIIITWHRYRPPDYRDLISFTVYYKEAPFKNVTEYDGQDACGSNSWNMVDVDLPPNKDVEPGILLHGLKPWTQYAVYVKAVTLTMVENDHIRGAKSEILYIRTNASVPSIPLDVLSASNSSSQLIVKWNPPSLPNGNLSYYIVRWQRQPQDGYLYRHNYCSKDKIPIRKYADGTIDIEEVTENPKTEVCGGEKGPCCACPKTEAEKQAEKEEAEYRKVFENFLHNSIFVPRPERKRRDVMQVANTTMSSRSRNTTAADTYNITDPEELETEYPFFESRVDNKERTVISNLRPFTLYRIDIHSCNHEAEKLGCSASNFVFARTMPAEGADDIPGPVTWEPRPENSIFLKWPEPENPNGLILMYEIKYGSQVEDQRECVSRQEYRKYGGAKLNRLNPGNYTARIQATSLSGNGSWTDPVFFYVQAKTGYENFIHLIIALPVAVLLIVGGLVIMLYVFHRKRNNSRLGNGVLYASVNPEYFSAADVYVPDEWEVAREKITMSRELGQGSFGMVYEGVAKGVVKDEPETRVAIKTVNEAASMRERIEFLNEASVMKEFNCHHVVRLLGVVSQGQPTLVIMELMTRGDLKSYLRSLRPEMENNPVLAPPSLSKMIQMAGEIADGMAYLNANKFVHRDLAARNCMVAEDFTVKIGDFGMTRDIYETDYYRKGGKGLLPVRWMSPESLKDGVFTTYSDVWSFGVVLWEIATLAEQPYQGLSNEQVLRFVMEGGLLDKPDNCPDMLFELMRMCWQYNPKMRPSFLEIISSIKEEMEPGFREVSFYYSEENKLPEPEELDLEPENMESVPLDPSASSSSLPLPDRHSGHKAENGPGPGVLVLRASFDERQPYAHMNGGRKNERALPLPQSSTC

Molecule	IC50 [nM]
7-[cis-3-(2-hydroxymethyl-imidazol-1-ylmethyl)-cyclobutyl]-53-(7-oxa-bicyclo[2.2.1]hept-1-ylmethoxy)--phenyl]-7H-pyrrolo[2,3-d]pyrimidin-4-ylamine [Example 176]	149
7-[cis-3-(4-methyltetrazoyl-1-ylmethyl)-cyclobutyl]-5-3-(7-oxa-bicyclo[2.2.1]hept-1-ylmethoxy)-phenyl]-7H-pyrrolo[2,3-d]pyrimidin-4-ylamine [Example 179]	345
7-[cis-3-(N-methylcarboxy-amino-methyl)-cyclobutyl]-5-3-(7-oxa-bicyclo[2.2.1]hept-1-ylmethoxy)-phenyl]-7H-pyrrolo[2,3-d]pyrimidin-4-ylamine [Example 177]	138
Nc1ncnc2c1c(-c1cccc(OCC3CCCCO3)c1)cn2[C@H]1C[C@@H](CN2CCC2)C1 (mixture of isomers) [Example 1, (rac)-cis-7-(3-azetidin-1-ylmethyl-cyclobutyl)-5-[3-(tetrahydro-pyran-2-ylmethoxy)-phenyl]-7H-pyrrolo[2,3-d]pyrimidin-4-ylamine]	119 to 139
Nc1ncnc2c1c(-c1cccc(OCC3CCCCO3)c1)cn2[C@H]1C[C@@H](CN2CC(O)C2)C1 (relative stereo) [Example 28, 1-(cis-3-{4-amino-5-[3-(tetrahydro-pyran-2-ylmethoxy)-phenyl]-pyrrolo[2,3-d]pyrimidin-7-yl}-cyclobutylmethyl)-azetidin-3-ol]	294
Nc1ncnc2c1c(-c1cccc(OCC3CCCCO3)c1)cn2[C@H]1C[C@@H](CN2CCC(F)(F)CC2)C1 (relative stereo) [Example 31, 7-[cis-3-(4,4-difluoro-piperidin-1-ylmethyl)-cyclobutyl]-5-[3-(tetrahydro-pyran-2-ylmethoxy)-phenyl]-7H-pyrrolo[2,3-d]pyrimidin-4-ylamine]	408
Nc1ncnc2c1c(-c1cccc(OCC3CCCCO3)c1)cn2[C@H]1C[C@@H](CN2CCC(F)CC2)C1 (relative stereo) [Example 32, 7-[cis-3-(4-fluoro-piperidin-1-ylmethyl)-cyclobutyl]-5-[3-(tetrahydro-pyran-2-ylmethoxy)-phenyl]-7H-pyrrolo[2,3-d]pyrimidin-4-ylamine]	309
Nc1ncnc2c1c(-c1cccc(OCC3CCCCO3)c1)cn2[C@H]1C[C@H](CN2CC(O)C2)C1 (relative stereo) [Example 36, 1-(trans-3-{4-amino-5-[3-(tetrahydro-pyran-2-ylmethoxy)-phenyl]pyrrolo[2,3-d]pyrimidin-7-yl}-cyclobutylmethyl)-azetidin-3-ol]	372
Nc1ncnc2c1c(-c1cccc(OCC3CCCCO3)c1)cn2[C@H]1C[C@H](CN2CC(F)C2)C1 (relative stereo) [Example 37, 7-[trans-3-(3-fluoro-azetidin-1-ylmethyl)-cyclobutyl]-5-[3-(tetrahydro-pyran-2-ylmethoxy)-phenyl]-7H-pyrrolo[2,3-d]pyrimidin-4-ylamine]	497
CC1(C)CCC(COc2cccc(-c3cn([C@H]4C[C@@H](CN5CC(O)C5)C4)c4ncnc(N)c34)c2)O1 (relative stereo) [Example 41, 1-(cis-3-{4-amino-5-[3-(5,5-dimethyl-tetrahydro-furan-2-ylmethoxy)-phenyl]-pyrrolo[2,3-d]pyrimidin-7-yl}-cyclobutylmethyl)-azetidin-3-ol]	41
CC1(C)CCC(COc2cccc(-c3cn([C@H]4C[C@H](CN5CC(O)C5)C4)c4ncnc(N)c34)c2)O1 (relative stereo) [Example 48, 1-(trans-3-{4-amino-5-[3-(5,5-dimethyl-tetrahydro-furan-2-ylmethoxy)-phenyl]-pyrrolo[2,3-d]pyrimidin-7-yl}-cyclobutylmethyl)-azetidin-3-ol]	26
CC1(C)CCC(COc2cccc(-c3cn([C@H]4C[C@@H](CN5CC(C(N)=O)C5)C4)c4ncnc(N)c34)c2)O1 (relative stereo) [Example 49, 1-(cis-3-{4-amino-5-[3-(5,5-dimethyl-tetrahydro-furan-2-ylmethoxy)-phenyl]-pyrrolo[2,3-d]pyrimidin-7-yl}-cyclobutylmethyl)-azetidine-3-carboxylic acid amide]	192 to 241
CC1(C)CCC(COc2cccc(-c3cn([C@H]4C[C@@H](CN5CC[C@@H](F)C5)C4)c4ncnc(N)c34)c2)O1 (relative stereo) [Example 52, 5-[cis-3-(5,5-dimethyl-tetrahydro-furan-2-ylmethoxy)-phenyl]-7-[3-((R)-3-fluoro-pyrrolidin-1-ylmethyl)cyclobutyl]-7H-pyrrolo[2,3-d]pyrimidin-4-ylamine]	37
CC1(C)CCC(COc2cccc(-c3cn([C@H]4C[C@@H](CN5CCC(F)(F)CC5)C4)c4ncnc(N)c34)c2)O1 (relative stereo) [Example 53, 7-[cis-3-(4,4-difluoro-piperidin-1-ylmethyl)-cyclobutyl]-5-[3-(5,5-dimethyl-tetrahydro-furan-2-ylmethoxy)-phenyl]-7H-pyrrolo[2,3-d]pyrimidin-4-ylamine]	32 to 37
CN1CCN([C@H]2CC[C@H](n3cc(-c4cccc(OCC5CCC(C)(C)O5)c4)c4c(N)ncnc43)CC2)CC1 (relative stereo) [Example 62, 5-[3-(5,5-dimethyl-tetrahydro-furan-2-ylmethoxy)-phenyl]-7-[trans-4-(4-methyl-piperazin-1-yl)-cyclohexyl]-7H-pyrrolo[2,3-d]pyrimidin-4-ylamine]	314
CN1CCN([C@H]2CC[C@@H](n3cc(-c4cccc(OCC5CCC(C)(C)O5)c4)c4c(N)ncnc43)CC2)CC1 (relative stereo) [Example 63, 5-[3-(5,5-dimethyl-tetrahydro-furan-2-ylmethoxy)-phenyl]-7-[cis-4-(4-methyl-piperazin-1-yl)-cyclohexyl]-7H-pyrrolo[2,3-d]pyrimidin-4-ylamine]	61
CC1(C)CCC(COc2cccc(-c3cn([C@H]4CC[C@H](N5CCOCC5)CC4)c4ncnc(N)c34)c2)O1 (relative stereo) [Example 64, 5-[3-(5,5-dimethyl-tetrahydro-furan-2-ylmethoxy)-phenyl]-7-(trans-4-morpholin-4-yl-cyclohexyl)-7H-pyrrolo[2,3-d]pyrimidin-4-ylamine]	367
CC1(C)CCC(COc2cccc(-c3cn([C@H]4CC[C@@H](N5CCOCC5)CC4)c4ncnc(N)c34)c2)O1 (relative stereo) [Example 65, 5-[3-(5,5-dimethyl-tetrahydro-furan-2-ylmethoxy)-phenyl]-7-(cis-4-morpholin-4-yl-cyclohexyl)-7H-pyrrolo[2,3-d]pyrimidin-4-ylamine]	128
CC1(C)CCC(COc2cccc(-c3cn([C@H]4C[C@@H](CN5CCSC5)C4)c4ncnc(N)c34)c2)O1 (relative stereo) [Example 70, 5-[3-(5,5-dimethyl-tetrahydro-furan-2-ylmethoxy)-phenyl]-7-(cis-3-thiazolidin-3-ylmethyl-cyclobutyl)-7H-pyrrolo[2,3-d]pyrimidin-4-ylamine]	59
Nc1ncnc2c1c(-c1cccc(OCC3CCCO3)c1)cn2[C@H]1C[C@@H](CN2CCC(F)(F)CC2)C1 (relative stereo) [Example 83, 7-[cis-3-(4,4-difluoro-piperidin-1-ylmethyl)-cyclobutyl]-5-[3-(tetrahydro-furan-2-ylmethoxy)-phenyl]-7H-pyrrolo[2,3-d]pyrimidin-4-ylamine]	372

Reference: patent publication US20120165310A1, “ETHER DERIVATIVES OF BICYCLIC HETEROARYLS” (NOVARTIS AG, priority 2009, published 2012)
